{"source": "patent US20050181376A1", "about": "“Antisense modulation of microsomal triglyceride transfer protein expression” (ISIS Pharmaceuticals, Inc., priority 2001, published 2005)", "note": "Strand notation (5' to 3'): a small letter for the sugar, then the base; units joined by * are phosphorothioate-linked, units joined directly phosphodiester-linked; [ ] holds rarer units or linkages, { } end groups; capitals alone tell only the bases. e = 2'-O-(2-methoxyethyl) (MOE); [5mC] = 5-methylcytosine; d = 2'-deoxy (DNA)", "data": [{"test_system": "mouse microsomal triglyceride transfer protein mRNA", "assay": "Antisense inhibition of mouse microsomal triglyceride transfer protein mRNA levels in primary hepatocytes, quantitative real-time PCR", "assay_type": "cell-based", "parameters": "concentration or dose not given beside the values", "conditions": "averages from two experiments", "method": "Primary mouse hepatocytes were prepared from CD-1 mice purchased from Charles River Labs (Wilmington, Mass.) and were routinely cultured in Hepatocyte Attachment Media (Gibco) supplemented with 10% Fetal Bovine Serum (Gibco/Life Technologies, Gaithersburg, Md.), 250 nM dexamethasone (Sigma), and 10 nM bovine insulin (Sigma). Cells were seeded into 96-well plates (Falcon-Primaria #3872) at a density of 10000 cells/well for use in RT-PCR analysis.\nCells were harvested 16-24 hours after oligonucleotide treatment.\nAll cytidine residues are 5-methylcytidines. […] Data are averages from two experiments. If present, “N.D.” indicates “no data”.", "units": {"% INHIB (inhibition of mouse microsomal triglyceride transfer protein mRNA levels)": "%"}, "values": [{"substance": "144467 (eG*e[5mC]*eT*e[5mC]*e[5mC]*d[5mC]*dT*d[5mC]*dT*dG*d[5mC]*d[5mC]*dA*d[5mC]*dA*eT*e[5mC]*e[5mC]*eA*eG; antisense) [compound 144467]", "% INHIB (inhibition of mouse microsomal triglyceride transfer protein mRNA levels)": 0}, {"substance": "144468 (eG*eA*eT*e[5mC]*eA*dT*dG*d[5mC]*dT*dG*dG*d[5mC]*dT*d[5mC]*d[5mC]*e[5mC]*eT*e[5mC]*eT*eG; antisense) [compound 144468]", "% INHIB (inhibition of mouse microsomal triglyceride transfer protein mRNA levels)": 0}, {"substance": "144469 (eG*eA*eG*eT*eA*d[5mC]*dG*dT*dG*dA*dG*d[5mC]*dT*dT*dG*eT*eA*eT*eA*eG; antisense) [compound 144469]", "% INHIB (inhibition of mouse microsomal triglyceride transfer protein mRNA levels)": 0}, {"substance": "144470 (eG*eT*eA*eG*e[5mC]*d[5mC]*d[5mC]*dA*d[5mC]*dG*d[5mC]*dT*dG*dT*d[5mC]*eT*eT*eG*e[5mC]*eG; antisense) [compound 144470]", "% INHIB (inhibition of mouse microsomal triglyceride transfer protein mRNA levels)": 5}, {"substance": "144471 (e[5mC]*eA*eT*e[5mC]*eA*d[5mC]*d[5mC]*dA*dT*d[5mC]*dA*dG*dG*dA*dT*eT*e[5mC]*e[5mC]*eT*e[5mC]; antisense) [compound 144471]", "% INHIB (inhibition of mouse microsomal triglyceride transfer protein mRNA levels)": 21}, {"substance": "144472 (eG*e[5mC]*e[5mC]*e[5mC]*eT*dG*dG*dA*dA*dG*dA*dT*dG*d[5mC]*dT*e[5mC]*eT*eT*e[5mC]*eT; antisense) [compound 144472]", "% INHIB (inhibition of mouse microsomal triglyceride transfer protein mRNA levels)": 0}, {"substance": "144473 (eG*e[5mC]*e[5mC]*eT*e[5mC]*d[5mC]*dA*dG*dG*dT*dT*dG*dT*d[5mC]*d[5mC]*eT*eT*e[5mC]*e[5mC]*e[5mC]; antisense) [compound 144473]", "% INHIB (inhibition of mouse microsomal triglyceride transfer protein mRNA levels)": 1}, {"substance": "144474 (eT*eA*eG*eA*eA*d[5mC]*dT*d[5mC]*d[5mC]*dT*dT*dG*dA*d[5mC]*d[5mC]*eT*eT*e[5mC]*e[5mC]*e[5mC]; antisense) [compound 144474]", "% INHIB (inhibition of mouse microsomal triglyceride transfer protein mRNA levels)": 16}, {"substance": "144475 (eT*eG*eG*eA*eA*dT*dA*dA*dG*d[5mC]*dT*dA*dG*d[5mC]*d[5mC]*eA*eA*eG*e[5mC]*e[5mC]; antisense) [compound 144475]", "% INHIB (inhibition of mouse microsomal triglyceride transfer protein mRNA levels)": 18}, {"substance": "144476 (e[5mC]*e[5mC]*e[5mC]*eA*eG*dA*dG*dA*dT*dA*dT*d[5mC]*dT*dA*d[5mC]*e[5mC]*eT*e[5mC]*eG*eT; antisense) [compound 144476]", "% INHIB (inhibition of mouse microsomal triglyceride transfer protein mRNA levels)": 19}, {"substance": "144477 (e[5mC]*e[5mC]*e[5mC]*eA*eG*d[5mC]*dA*d[5mC]*d[5mC]*dT*dG*dG*dT*dT*dT*eG*e[5mC]*e[5mC]*eG*eT; antisense) [compound 144477]", "% INHIB (inhibition of mouse microsomal triglyceride transfer protein mRNA levels)": 94}, {"substance": "144478 (e[5mC]*e[5mC]*e[5mC]*eT*eG*dG*dT*d[5mC]*dT*d[5mC]*dT*dT*d[5mC]*dT*dG*e[5mC]*eA*eA*eG*e[5mC]; antisense) [compound 144478]", "% INHIB (inhibition of mouse microsomal triglyceride transfer protein mRNA levels)": 41}, {"substance": "144479 (e[5mC]*eA*e[5mC]*e[5mC]*eT*dG*d[5mC]*d[5mC]*dA*d[5mC]*dT*dT*dG*d[5mC]*dT*eT*e[5mC]*e[5mC]*e[5mC]*eG; antisense) [compound 144479]", "% INHIB (inhibition of mouse microsomal triglyceride transfer protein mRNA levels)": 65}, {"substance": "144480 (eG*e[5mC]*eT*e[5mC]*eG*dA*dG*dG*dA*d[5mC]*d[5mC]*dT*dG*dT*d[5mC]*e[5mC]*e[5mC]*eA*e[5mC]*eA; antisense) [compound 144480]", "% INHIB (inhibition of mouse microsomal triglyceride transfer protein mRNA levels)": 51}, {"substance": "144481 (eT*eT*e[5mC]*e[5mC]*eA*dG*dT*dG*d[5mC]*dT*d[5mC]*d[5mC]*dG*d[5mC]*d[5mC]*eA*eG*eA*eG*eA; antisense) [compound 144481]", "% INHIB (inhibition of mouse microsomal triglyceride transfer protein mRNA levels)": 33}, {"substance": "144482 (eG*eA*eA*eG*eT*d[5mC]*d[5mC]*dG*dG*dA*dG*dG*dT*dG*d[5mC]*eT*eG*eG*eA*eT; antisense) [compound 144482]", "% INHIB (inhibition of mouse microsomal triglyceride transfer protein mRNA levels)": 3}, {"substance": "144483 (e[5mC]*eA*eG*eA*eG*dG*dT*dG*dA*d[5mC]*dG*dG*d[5mC]*dA*dT*e[5mC]*e[5mC]*eA*e[5mC]*e[5mC]; antisense) [compound 144483]", "% INHIB (inhibition of mouse microsomal triglyceride transfer protein mRNA levels)": 22}, {"substance": "144484 (e[5mC]*e[5mC]*eT*eG*eG*dA*dG*dT*dA*dT*dG*dA*dT*dA*d[5mC]*eT*eG*e[5mC]*eT*eG; antisense) [compound 144484]", "% INHIB (inhibition of mouse microsomal triglyceride transfer protein mRNA levels)": 48}, {"substance": "144485 (e[5mC]*eT*e[5mC]*eT*eG*dA*dT*dG*dT*d[5mC]*dG*dT*dT*dG*d[5mC]*eT*eT*eG*e[5mC]*eA; antisense) [compound 144485]", "% INHIB (inhibition of mouse microsomal triglyceride transfer protein mRNA levels)": 50}, {"substance": "144486 (eA*eT*eT*e[5mC]*eT*dG*dA*d[5mC]*dA*d[5mC]*dA*dG*d[5mC]*dT*dT*e[5mC]*e[5mC]*eT*eG*eA; antisense) [compound 144486]", "% INHIB (inhibition of mouse microsomal triglyceride transfer protein mRNA levels)": 34}, {"substance": "144487 (e[5mC]*e[5mC]*e[5mC]*eA*eG*dG*dA*dT*d[5mC]*dA*dG*d[5mC]*dT*dT*d[5mC]*eT*eT*eA*eG*e[5mC]; antisense) [compound 144487]", "% INHIB (inhibition of mouse microsomal triglyceride transfer protein mRNA levels)": 19}, {"substance": "144488 (e[5mC]*eA*eG*e[5mC]*e[5mC]*dT*d[5mC]*dA*dG*d[5mC]*dA*dT*dA*d[5mC]*dT*eT*e[5mC]*eA*eG*eA; antisense) [compound 144488]", "% INHIB (inhibition of mouse microsomal triglyceride transfer protein mRNA levels)": 35}, {"substance": "144489 (eG*eT*eG*eG*e[5mC]*dT*dG*dA*d[5mC]*dG*dG*dG*d[5mC]*d[5mC]*d[5mC]*eT*eT*e[5mC]*eT*e[5mC]; antisense) [compound 144489]", "% INHIB (inhibition of mouse microsomal triglyceride transfer protein mRNA levels)": 42}, {"substance": "144490 (eA*e[5mC]*eG*eA*eT*dT*d[5mC]*dT*dG*dG*dT*dG*dG*dT*dA*eT*eA*eT*e[5mC]*e[5mC]; antisense) [compound 144490]", "% INHIB (inhibition of mouse microsomal triglyceride transfer protein mRNA levels)": 23}, {"substance": "144491 (e[5mC]*eA*eG*e[5mC]*eA*dG*d[5mC]*dG*dG*d[5mC]*dA*dG*dT*dT*dG*eT*eG*e[5mC]*eG*e[5mC]; antisense) [compound 144491]", "% INHIB (inhibition of mouse microsomal triglyceride transfer protein mRNA levels)": 26}, {"substance": "144492 (eT*eG*e[5mC]*eA*e[5mC]*dA*dA*d[5mC]*dG*dG*dT*dG*dA*dG*d[5mC]*eA*eT*eG*eT*eA; antisense) [compound 144492]", "% INHIB (inhibition of mouse microsomal triglyceride transfer protein mRNA levels)": 39}, {"substance": "144493 (eG*e[5mC]*e[5mC]*eA*eG*dT*dA*dT*dA*dG*dG*d[5mC]*dA*dG*dA*eA*eG*eA*eG*eG; antisense) [compound 144493]", "% INHIB (inhibition of mouse microsomal triglyceride transfer protein mRNA levels)": 24}, {"substance": "144494 (eA*eA*eG*eG*e[5mC]*dT*dG*dT*dA*dT*dG*dT*dG*dG*dA*e[5mC]*eG*e[5mC]*eT*eG; antisense) [compound 144494]", "% INHIB (inhibition of mouse microsomal triglyceride transfer protein mRNA levels)": 27}, {"substance": "144495 (e[5mC]*eA*eG*eA*eA*dT*dG*d[5mC]*d[5mC]*dA*dG*dA*dG*d[5mC]*d[5mC]*eA*eG*eA*eG*eT; antisense) [compound 144495]", "% INHIB (inhibition of mouse microsomal triglyceride transfer protein mRNA levels)": 42}, {"substance": "144496 (e[5mC]*eT*eG*e[5mC]*eA*dA*dT*dT*dA*dA*dG*d[5mC]*d[5mC]*dT*dT*e[5mC]*e[5mC]*eA*eG*e[5mC]; antisense) [compound 144496]", "% INHIB (inhibition of mouse microsomal triglyceride transfer protein mRNA levels)": 40}, {"substance": "144497 (e[5mC]*eT*e[5mC]*eT*e[5mC]*d[5mC]*dT*dT*d[5mC]*dA*dT*d[5mC]*dA*dG*dG*eA*eG*eT*eG*eG; antisense) [compound 144497]", "% INHIB (inhibition of mouse microsomal triglyceride transfer protein mRNA levels)": 57}, {"substance": "144498 (eT*eG*eA*e[5mC]*eA*dT*dG*d[5mC]*d[5mC]*dA*dG*d[5mC]*dA*dT*dA*eA*eG*eA*eG*eT; antisense) [compound 144498]", "% INHIB (inhibition of mouse microsomal triglyceride transfer protein mRNA levels)": 44}, {"substance": "144499 (e[5mC]*eG*e[5mC]*eT*eG*dA*d[5mC]*dA*dG*dG*dG*dT*d[5mC]*dG*d[5mC]*e[5mC]*eG*eG*eA*eT; antisense) [compound 144499]", "% INHIB (inhibition of mouse microsomal triglyceride transfer protein mRNA levels)": 38}, {"substance": "144500 (e[5mC]*e[5mC]*e[5mC]*eT*eT*dT*d[5mC]*dA*d[5mC]*d[5mC]*dA*d[5mC]*dG*d[5mC]*dT*eG*eA*e[5mC]*eA*eG; antisense) [compound 144500]", "% INHIB (inhibition of mouse microsomal triglyceride transfer protein mRNA levels)": 34}, {"substance": "144501 (eG*eA*e[5mC]*e[5mC]*eA*d[5mC]*d[5mC]*d[5mC]*dT*dG*dG*dA*dT*d[5mC]*dT*e[5mC]*e[5mC]*eA*eT*eA; antisense) [compound 144501]", "% INHIB (inhibition of mouse microsomal triglyceride transfer protein mRNA levels)": 52}, {"substance": "144502 (e[5mC]*eT*e[5mC]*eG*e[5mC]*dG*dA*dT*dA*d[5mC]*d[5mC]*dA*d[5mC]*dA*dG*eA*e[5mC]*eT*eG*eA; antisense) [compound 144502]", "% INHIB (inhibition of mouse microsomal triglyceride transfer protein mRNA levels)": 51}, {"substance": "144503 (eG*eT*eT*eA*eT*d[5mC]*dA*d[5mC]*d[5mC]*dA*d[5mC]*dA*dG*d[5mC]*d[5mC]*eA*e[5mC]*e[5mC]*e[5mC]*eG; antisense) [compound 144503]", "% INHIB (inhibition of mouse microsomal triglyceride transfer protein mRNA levels)": 50}, {"substance": "144504 (eG*eA*eA*e[5mC]*eT*d[5mC]*d[5mC]*dA*dG*d[5mC]*d[5mC]*d[5mC]*dA*dG*d[5mC]*e[5mC]*eT*e[5mC]*eT*eG; antisense) [compound 144504]", "% INHIB (inhibition of mouse microsomal triglyceride transfer protein mRNA levels)": 0}]}]}
